The values that follow come from patent US20230339970A1, “CASEIN KINASE 1 DELTA MODULATORS” (priority 2020, published 2023).

A value given as a limit tells only on which side of the number the result lay.

One assay has as its target T1, human CSNK1D (Homo sapiens, UniProt P48730).
T1 construct: expressed in transfected cells
Briefly: Whole Cell nBRET CSNK1D Binding Assay. To be noted: living CHO cells stably expressing human CSNK1D tagged with nanoluciferase; NanoBret tracer 130 nM; 2 hours at 37 C.

Assay [1] addresses T2, human recombinant GST cleaved CSNK1D (Homo sapiens, UniProt P48730).
T2 construct: GST (cleaved yes); purchased University of Dundee clone DU 19064
Kind of assay: Purified Enzyme Assay (ADP-Glo CSNK1D Kinase Assay). The format is biochemical. To be noted: 2 nM CSNK1D; peptide substrate 150 μM; ATP 20 μM; 45 minutes at room temperature. The gist of the method: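 Percent activity derived from ADP-Glo quantification of ADP produced. Reactions: compound dose-response with human recombinant GST-cleaved CSNK1D, ATP and substrate peptide PLSRTL-pS-VASLPGL, incubated 45 min at room temperature.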

T1 sequence (P48730 whole entry): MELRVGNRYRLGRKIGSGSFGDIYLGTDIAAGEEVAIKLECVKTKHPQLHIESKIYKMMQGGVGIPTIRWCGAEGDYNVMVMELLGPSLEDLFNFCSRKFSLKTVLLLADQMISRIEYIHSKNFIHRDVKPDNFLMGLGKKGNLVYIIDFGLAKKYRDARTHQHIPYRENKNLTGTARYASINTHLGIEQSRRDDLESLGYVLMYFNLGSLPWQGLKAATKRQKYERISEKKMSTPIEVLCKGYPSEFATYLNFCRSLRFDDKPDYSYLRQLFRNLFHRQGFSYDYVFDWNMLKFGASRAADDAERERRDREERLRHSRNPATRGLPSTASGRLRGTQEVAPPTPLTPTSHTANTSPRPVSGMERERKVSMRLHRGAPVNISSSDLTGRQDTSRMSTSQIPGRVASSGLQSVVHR
T2 sequence (P48730 whole entry): as above

In the case of `CC1(C)Cn2nc(-c3ccc(F)cn3)c(-c3cc(N)n4nccc4c3)c2CO1` [Example 380, 5-[2-(5-Fluoro-2-pyridyl)-6,6-dimethyl-4,7-dihydropyrazolo[5,1-c][1,4]oxazin-3-yl]pyrazolo[1,5-a]pyridin-7-amine], the results for the IC50 (on human CSNK1D; in assay [1]) were 93 nM and 10 nM, respectively.
In the same order, the values of `CC1(C)Cn2nc(-c3ccc(F)cn3)c(-c3ccn4ncc(N)c4c3)c2CO1` [Example 381, 5-[2-(5-Fluoro-2-pyridyl)-6,6-dimethyl-4,7-dihydropyrazolo[5,1-c][1,4]oxazin-3-yl]pyrazolo[1,5-a]pyridin-3-amine] are 228 nM and 64 nM.
In the case of `Cc1cn2nccc2cc1-c1c(-c2ccc(F)cn2)nn2c1COC(C)(C)C2` [Example 382, 2-(5-Fluoro-2-pyridyl)-6,6-dimethyl-3-(6-methylpyrazolo[1,5-a]pyridin-5-yl)-4,7-dihydropyrazolo[5,1-c][1,4]oxazine], the results for the IC50 (on human CSNK1D; in assay [1]) were above 10000 nM and 451 nM, respectively.
In the same order, the values of `Cc1cnn2ccc(-c3c(-c4ccc(F)cn4)nn4c3COC(C)(C)C4)cc12` [Example 383, 2-(5-Fluoro-2-pyridyl)-6,6-dimethyl-3-(3-methylpyrazolo[1,5-a]pyridin-5-yl)-4,7-dihydropyrazolo[5,1-c][1,4]oxazine] are 1040 nM and 20 nM.
In the same order, the values of `CC1(C)Cn2nc(-c3ccc(F)cn3)c(-c3ccn4ncc(Cl)c4c3)c2CO1` [Example 384, 3-(3-Chloropyrazolo[1,5-a]pyridin-5-yl)-2-(5-fluoropyridin-2-yl)-6,6-dimethyl-6,7-dihydro-4H-pyrazolo[5,1-c][1,4]oxazine] are 171 nM and 15 nM.
In the same order, the values of `CC1(C)Cn2nc(-c3ccc(F)cn3)c(-c3ccn4ncnc4c3)c2CO1` [Example 385, 3-([1,2,4]Triazolo[1,5-a]pyridin-7-yl)-2-(5-fluoropyridin-2-yl)-6,6-dimethyl-6,7-dihydro-4H-pyrazolo[5,1-c][1,4]oxazine] are 1570 nM and 50 nM.
Regarding `Cc1nc2cc(-c3c(-c4ccc(F)cn4)nn4c3COC(C)(C)C4)ccn2n1` [Example 386, 2-(5-Fluoropyridin-2-yl)-6,6-dimethyl-3-(2-methyl-[1,2,4]triazolo[1,5-a]pyridin-7-yl)-6,7-dihydro-4H-pyrazolo[5,1-c][1,4]oxazine], the results for the half-inhibitory concentration (IC50) (on human CSNK1D; in assay [1]) were 9660 nM and 162 nM, respectively.
In the same order, the values of `CC1(C)Cn2nc(-c3ccc(F)cn3)c(-c3ccn4nccc4n3)c2CO1` [Example 387, 2-(5-Fluoropyridin-2-yl)-6,6-dimethyl-3-(pyrazolo[1,5-a]pyrimidin-5-yl)-6,7-dihydro-4H-pyrazolo[5,1-c][1,4]oxazine] are 760 nM and 30 nM.
Regarding `CC1(C)Cn2nc(-c3ccc(F)cn3)c(-c3ccnc4[nH]nc(Cl)c34)c2CO1` [Example 388, 3-(3-Chloro-1H-pyrazolo[3,4-b]pyridin-4-yl)-2-(5-fluoropyridin-2-yl)-6,6-dimethyl-6,7-dihydro-4H-pyrazolo[5,1-c][1,4]oxazine], the half-inhibitory concentration (IC50) at human CSNK1D is 14 nM; in assay [1] it was 4 nM.
In the same order, the values of `CC1(C)Cn2nc(-c3ccc(F)cn3)c(-c3c(F)cnc4[nH]ncc34)c2CO1` [Example 389, 3-(5-Fluoro-1H-pyrazolo[3,4-b]pyridin-4-yl)-2-(5-fluoropyridin-2-yl)-6,6-dimethyl-6,7-dihydro-4H-pyrazolo[5,1-c][1,4]oxazine] are 94 nM and 5 nM.
In the same order, the values of `CC1(C)Cn2nc(-c3ccc(F)cn3)c(-c3cc(C(F)F)nc4[nH]ncc34)c2CO1` [Example 390, 3-[6-(Difluoromethyl)-1H-pyrazolo[3,4-b]pyridin-4-yl]-2-(5-fluoro-2-pyridyl)-6,6-dimethyl-4,7-dihydropyrazolo[5,1-c][1,4]oxazine] are 141 nM and 6 nM.
In the same order, the values of `CC1(C)Cn2nc(-c3ccc(F)cn3)c(-c3cc(CCC(F)(F)F)nc4[nH]ncc34)c2CO1` [Example 391, 2-(5-Fluoro-2-pyridyl)-6,6-dimethyl-3-[6-(3,3,3-trifluoropropyl)-1H-pyrazolo[3,4-b]pyridin-4-yl]-4,7-dihydropyrazolo[5,1-c][1,4]oxazine] are 5380 nM and 258 nM.
As to `CC1(C)Cn2nc(-c3ccc(F)cn3)c(-c3c(F)cnc4[nH]nc(Cl)c34)c2CO1` [Example 392, 3-(3-Chloro-5-fluoro-1H-pyrazolo[3,4-b]pyridin-4-yl)-2-(5-fluoropyridin-2-yl)-6,6-dimethyl-6,7-dihydro-4H-pyrazolo[5,1-c][1,4]oxazine], the IC50 at human CSNK1D is 26 nM; in assay [1], 7 nM.
In the same order, the values of `Cc1cc(-c2c(-c3ccc(F)c(C)n3)nn3c2COC(C)(C)C3)c2c(C)n[nH]c2n1` [Example 393, 3-(3,6-Dimethyl-1H-pyrazolo[3,4-b]pyridin-4-yl)-2-(5-fluoro-6-methylpyridin-2-yl)-6,6-dimethyl-6,7-dihydro-4H-pyrazolo[5,1-c][1,4]oxazine] are 2740 nM and 49 nM.
In the case of `Cc1nc(-c2c(-c3ccc(F)cc3)nn3c2COC(C)(C)C3)c2cn[nH]c2n1` [Example 394, 2-(4-Fluorophenyl)-6,6-dimethyl-3-(6-methyl-1H-pyrazolo[3,4-d]pyrimidin-4-yl)-4,7-dihydropyrazolo[5,1-c][1,4]oxazine], the IC50 on human CSNK1D worked out at 18 nM; in assay [1] it was 2 nM.
In the same order, the values of `[2H]C([2H])([2H])C1(C([2H])([2H])[2H])Cn2nc(-c3ccc(F)cn3)c(-c3ccnc(NC(=O)CC)c3)c2CO1` [Example 395, N-(4-(2-(5-Fluoropyridin-2-yl)-6,6-bis(methyl-d3)-6,7-dihydro-4H-pyrazolo[5,1-c][1,4]oxazin-3-yl)pyridin-2-yl)propionamide] are 21 nM and 2 nM.
In the same order, the values of `[2H]C([2H])([2H])C1(C([2H])([2H])[2H])Cn2nc(-c3ccc(F)cn3)c(-c3ccn4nccc4c3)c2CO1` [Example 396, 2-(5-Fluoropyridin-2-yl)-6,6-bis(methyl-d3)-3-(pyrazolo[1,5-a]pyridin-5-yl)-6,7-dihydro-4H-pyrazolo[5,1-c][1,4]oxazine] are 292 nM and 22 nM.
In the same order, the values of `[2H]C([2H])([2H])C1(C([2H])([2H])[2H])Cn2nc(-c3ccc(F)cn3)c(-c3c(F)cnc4[nH]ccc34)c2CO1` [Example 397, 3-(5-Fluoro-1H-pyrrolo[2,3-b]pyridin-4-yl)-2-(5-fluoropyridin-2-yl)-6,6-bis(methyl-d3)-6,7-dihydro-4H-pyrazolo[5,1-c][1,4]oxazine] are 11 nM and 2 nM.
`[2H]C([2H])([2H])C1(C([2H])([2H])[2H])Cn2nc(-c3ccc(F)cn3)c(-c3ccnc4[nH]nc(F)c34)c2CO1` [Example 398, 3-(3-Fluoro-1H-pyrazolo[3,4-b]pyridin-4-yl)-2-(5-fluoropyridin-2-yl)-6,6-bis(methyl-d3)-6,7-dihydro-4H-pyrazolo[5,1-c][1,4]oxazine]: the 50% inhibitory concentration (IC50) at human CSNK1D amounted to 29 nM; in assay [1], 3 nM.
In the same order, the values of `[2H]C([2H])([2H])C1(C([2H])([2H])[2H])Cn2nc(-c3ccc(F)cn3)c(-c3c(F)cnc4[nH]ncc34)c2CO1` [Example 399, 3-(5-Fluoro-1H-pyrazolo[3,4-b]pyridin-4-yl)-2-(5-fluoropyridin-2-yl)-6,6-bis(methyl-d3)-6,7-dihydro-4H-pyrazolo[5,1-c][1,4]oxazine] are 95 nM and 5 nM.
In the same order, the values of `[2H]C([2H])([2H])C1(C([2H])([2H])[2H])Cn2nc(-c3ccc(F)cn3)c(-c3ccnc4[nH]nc(Cl)c34)c2CO1` [Example 400, 3-(3-Chloro-1H-pyrazolo[3,4-b]pyridin-4-yl)-2-(5-fluoropyridin-2-yl)-6,6-bis(methyl-d3)-6,7-dihydro-4H-pyrazolo[5,1-c][1,4]oxazine] are 30 nM and 4 nM.
In the same order, the values of `[2H]C([2H])([2H])C1(C([2H])([2H])[2H])Cn2nc(-c3ccc(F)cn3)c(-c3cc(C)nc4[nH]ncc34)c2CO1` [Example 401, 2-(5-Fluoropyridin-2-yl)-6,6-bis(methyl-d3)-3-(6-methyl-1H-pyrazolo[3,4-b]pyridin-4-yl)-6,7-dihydro-4H-pyrazolo[5,1-c][1,4]oxazine] are 43 nM and 4 nM.
For `[2H]C([2H])([2H])C1(C([2H])([2H])[2H])Cn2nc(-c3ccc(F)cn3)c(-c3cc(C(F)F)nc4[nH]ncc34)c2CO1` [Example 402, 3-(6-(Difluoromethyl)-1H-pyrazolo[3,4-b]pyridin-4-yl)-2-(5-fluoropyridin-2-yl)-6,6-bis(methyl-d3)-6,7-dihydro-4H-pyrazolo[5,1-c][1,4]oxazine], the results for the half-inhibitory concentration (IC50) (at human CSNK1D; in assay [1]) were 75 nM and 5 nM, respectively.
Regarding `[2H]C([2H])([2H])C1(C([2H])([2H])[2H])Cn2nc(-c3ccc(F)cn3)c(-c3c(F)cnc4[nH]nc(Cl)c34)c2CO1` [Example 403, 3-(3-Chloro-5-fluoro-1H-pyrazolo[3,4-b]pyridin-4-yl)-2-(5-fluoropyridin-2-yl)-6,6-bis(methyl-d3)-6,7-dihydro-4H-pyrazolo[5,1-c][1,4]oxazine], the IC50 worked out at 23 nM on human CSNK1D and 5 nM in assay [1].
In the same order, the values of `[2H]C([2H])([2H])C1(C([2H])([2H])[2H])Cn2nc(-c3ccc(F)cn3)c(-c3c(F)cnc4[nH]nc(C)c34)c2CO1` [Example 404, 3-(5-Fluoro-3-methyl-1H-pyrazolo[3,4-b]pyridin-4-yl)-2-(5-fluoropyridin-2-yl)-6,6-bis(methyl-d3)-6,7-dihydro-4H-pyrazolo[5,1-c][1,4]oxazine] are 137 nM and 9 nM.

The term IC50 denotes the concentration needed to halve the response being measured.
